One test concerns the target Acetylcholinesterase (Electrophorus electricus, UniProt O42275). The test is described as follows: Inhibition of electric eel AChE by Ellman's method. (DTNB colorimetry detects thiols as they appear.)
In test [1] the target is Kappa-type opioid receptor (Cavia porcellus, UniProt P41144). The test is described as follows: Displacement of [3H]U69593 from kappa opioid receptor in guinea pig brain membrane. It is filed as cell membranes. (Displacement assays read how much labelled ligand stays bound in the presence of the test substance.)
Test [2] deals with Delta-type opioid receptor (Rattus norvegicus, UniProt P33533). Nature of the test: Displacement of [3H][Ile5,6]deltorphin2 from delta opioid receptor in rat brain membrane. It is filed as cell membranes.
For the next test, the target named is Mu-type opioid receptor (Rattus norvegicus, UniProt P33535). The test is described as follows: Displacement of [3H]DAMGO from mu opioid receptor in rat brain membrane. It is filed as cell membranes.

Where only a bound is given, the exact number is not on record here.

Our source for the IC50 and Ki values is ChEMBL document CHEMBL1250431, “Morphinans and isoquinolines: acetylcholinesterase inhibition, pharmacophore modeling, and interaction with opioid receptors” (Bioorg Med Chem, 2010).

Broadly, the IC50 is the concentration that inhibits the measured activity by half. A lower IC50 goes with greater potency in that assay. Broadly, the Ki is the dissociation constant of the complex between target and ligand, obtained from inhibition or displacement.

Chain of Delta-type opioid receptor (P33533 whole entry): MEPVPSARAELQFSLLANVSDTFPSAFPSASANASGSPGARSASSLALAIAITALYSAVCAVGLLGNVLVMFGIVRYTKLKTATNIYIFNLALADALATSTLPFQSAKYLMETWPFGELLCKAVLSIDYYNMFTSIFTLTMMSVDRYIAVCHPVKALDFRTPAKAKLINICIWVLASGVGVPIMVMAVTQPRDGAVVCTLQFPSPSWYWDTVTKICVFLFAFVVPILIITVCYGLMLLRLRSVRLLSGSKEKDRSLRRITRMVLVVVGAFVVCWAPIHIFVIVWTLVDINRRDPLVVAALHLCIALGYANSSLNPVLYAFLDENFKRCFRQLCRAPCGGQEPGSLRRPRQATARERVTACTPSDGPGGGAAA
Chain of Mu-type opioid receptor (P33535 whole entry): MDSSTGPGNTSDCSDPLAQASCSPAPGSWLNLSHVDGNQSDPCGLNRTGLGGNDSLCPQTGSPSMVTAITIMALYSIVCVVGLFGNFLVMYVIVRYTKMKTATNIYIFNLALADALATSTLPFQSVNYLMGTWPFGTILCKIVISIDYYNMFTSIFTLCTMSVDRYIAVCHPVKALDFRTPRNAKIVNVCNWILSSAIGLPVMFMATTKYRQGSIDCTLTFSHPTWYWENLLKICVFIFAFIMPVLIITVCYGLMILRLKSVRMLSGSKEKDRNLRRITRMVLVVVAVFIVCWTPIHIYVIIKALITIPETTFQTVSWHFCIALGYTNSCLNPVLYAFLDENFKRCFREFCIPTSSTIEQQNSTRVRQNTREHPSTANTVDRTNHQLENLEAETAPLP
Chain of Kappa-type opioid receptor (P41144 whole entry): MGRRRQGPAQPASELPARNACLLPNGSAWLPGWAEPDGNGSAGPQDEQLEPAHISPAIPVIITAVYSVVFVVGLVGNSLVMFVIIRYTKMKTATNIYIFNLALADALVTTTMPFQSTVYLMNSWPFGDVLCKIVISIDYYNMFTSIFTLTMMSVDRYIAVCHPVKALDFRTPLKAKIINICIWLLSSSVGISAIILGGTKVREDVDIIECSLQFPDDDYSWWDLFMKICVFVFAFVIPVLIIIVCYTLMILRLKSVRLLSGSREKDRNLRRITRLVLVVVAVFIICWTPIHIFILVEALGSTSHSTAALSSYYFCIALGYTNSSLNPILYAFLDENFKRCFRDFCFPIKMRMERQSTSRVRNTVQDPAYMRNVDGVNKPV
Chain of Acetylcholinesterase (O42275 whole entry): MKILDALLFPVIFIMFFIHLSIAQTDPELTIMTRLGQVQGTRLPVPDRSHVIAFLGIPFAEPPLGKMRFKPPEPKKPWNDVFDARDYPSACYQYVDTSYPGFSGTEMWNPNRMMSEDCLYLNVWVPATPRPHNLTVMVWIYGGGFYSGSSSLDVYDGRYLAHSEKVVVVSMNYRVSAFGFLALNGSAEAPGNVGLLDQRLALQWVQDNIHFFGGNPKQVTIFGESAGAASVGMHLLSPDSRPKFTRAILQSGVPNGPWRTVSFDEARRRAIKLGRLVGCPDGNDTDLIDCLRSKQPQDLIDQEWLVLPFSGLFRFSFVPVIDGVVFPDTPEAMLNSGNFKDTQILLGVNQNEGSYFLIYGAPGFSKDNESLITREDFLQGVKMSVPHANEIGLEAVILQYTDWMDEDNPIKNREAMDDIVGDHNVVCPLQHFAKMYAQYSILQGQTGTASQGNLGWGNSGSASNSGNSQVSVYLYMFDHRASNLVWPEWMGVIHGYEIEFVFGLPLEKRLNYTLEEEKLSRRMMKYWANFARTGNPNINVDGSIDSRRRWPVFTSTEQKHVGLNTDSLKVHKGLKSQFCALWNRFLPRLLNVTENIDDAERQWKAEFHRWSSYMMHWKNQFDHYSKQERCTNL

In the case of `COC1CCC2C(Cc3cccc(O)c3)=NCCC2C1` (stereo unspecified), at Acetylcholinesterase, the IC50 is 43.1 µM. The Ki was more than 10 µM in test [1], more than 10 µM in test [2] and 2.32 µM on Mu-type opioid receptor.
On Acetylcholinesterase, `COC1=CCC2=C(CCNC2Cc2ccccc2O)C1` (stereo unspecified) had an IC50 of 138 µM. Also, the Ki (in test [1]; in test [2]; on Mu-type opioid receptor) was more than 10 µM in each case.
In the case of `C=CCN1CC[C@]23CC(=O)CC[C@H]2[C@H]1Cc1cccc(OC)c13`, the results for the Ki (in test [1]; in test [2]; on Mu-type opioid receptor) were 0.113 µM, 0.217 µM and 0.00655 µM, respectively.
For `CCO[C@@]12CCC(=O)C[C@@]13CCN(C)[C@@H]2Cc1cccc(O)c13`, half-maximal inhibition against Acetylcholinesterase (IC50) was put at 37.1 µM. Also, the results for the Ki (in test [1]; in test [2]; on Mu-type opioid receptor) were 0.0331 µM, 0.316 µM and 0.0202 µM, respectively.
For `O=CN1CC[C@]23CC(=O)CC[C@H]2[C@H]1Cc1c(O)ccc(O)c13`, the Ki in test [1] was 0.328 µM; in test [2], 1.25 µM; on Mu-type opioid receptor it was 0.0672 µM.
The compound `O=CN1CC[C@]23CC(=O)CC[C@H]2[C@H]1CC1C(=O)C=CC(=O)C13` (stereo partly specified) came in with an IC50 against Acetylcholinesterase of 12.7 µM. Moreover, the Ki in test [1] was determined as 0.0432 µM; in test [2], 0.0122 µM; at Mu-type opioid receptor, 0.00046 µM.
`COc1cccc(CC2=NCCc3cc(OC)ccc32)c1` displayed an IC50 on Acetylcholinesterase of 42.9 µM.
On the same count and under the same terms, the figure for `C=CCN1CC[C@]23CC(=O)CC[C@H]2[C@H]1Cc1cccc(OC(C)=O)c13` is 193 µM.
For the compound `O=CN1CC[C@]23c4c5cccc4O[C@H]2C(=O)CC[C@H]3[C@H]1C5`, on Acetylcholinesterase, the IC50 is 60.3 µM. Moreover, the Ki (in test [1]; in test [2]; on Mu-type opioid receptor) was more than 10 µM throughout.
Turning to `CCCCCCOc1cccc2c1[C@]13CCN(CC4CC4)[C@H](C2)[C@]1(OC)C=CC(=O)C3`, the IC50 on Acetylcholinesterase was 405 µM.
Consider `CCO[C@@]12CCC(=O)[C@]3(C)Oc4c(O)ccc5c4[C@@]31CCN(C)[C@@H]2C5`, for which the Ki in test [1] was 0.0102 µM; in test [2] it was 0.0048 µM; at Mu-type opioid receptor it was 0.0001 µM.
`COc1cccc2c1[C@]13CCN(C)[C@H](C2)[C@]1(OC)CCC(=O)C3`: half-maximal inhibition against Acetylcholinesterase (IC50) required 46.2 µM. In addition, the inhibition constant (Ki) in test [1] is 0.403 µM; in test [2], 0.101 µM; at Mu-type opioid receptor, 0.00115 µM.
Take `CO[C@@]12CCC(=O)[C@@H]3Oc4cccc5c4[C@@]31CCN(C)[C@@H]2C5`: the IC50 against Acetylcholinesterase was 140 µM.
On the same count and under the same terms, the figure for `CN1CC[C@]23c4c5cccc4O[C@H]2C(=O)CC[C@@]3(O)[C@H]1C5` is 65.3 µM.
As for `C=CCN1CC[C@]23CC(=O)CC[C@@]2(OC)[C@H]1Cc1cccc(OC)c13`, the Ki was 0.567 µM in test [1], 0.21 µM in test [2] and 0.002 µM at Mu-type opioid receptor.
Take `C=CCN1CC[C@@]23CCCC[C@@H]2[C@@H]1Cc1ccc(O)cc13` [DEXTALLORPHAN]: the Ki on Acetylcholinesterase came out at 20 µM.
At Acetylcholinesterase, `CN1CC[C@@]23CCCC[C@@H]2[C@@H]1Cc1ccc(O)cc13` [DEXTRORPHAN] came in with an inhibition constant (Ki) of 20 µM.
Compound `C=CCN1CC[C@]23CCCC[C@H]2[C@H]1Cc1ccc(O)cc13` [LEVALLORPHAN] displayed an inhibition constant Ki on Acetylcholinesterase of 12 µM.
In the case of `CN1CC[C@]23CCCC[C@H]2[C@H]1Cc1ccc(O)cc13` [LEVORPHANOL], the Ki at Acetylcholinesterase turned out to be 25 µM.
Take `COc1ccc2c3c1O[C@H]1C(=O)CC[C@@]4(O)[C@@H](C2)N(C)CC[C@]314` [OXYCODONE]: the IC50 at Acetylcholinesterase amounted to 76.2 µM.
